Values quoted from earlier work as cited in PMC6722509, “Design and In Vivo Pharmacokinetic Evaluation of Triamcinolone Acetonide Microcrystals-Loaded PLGA Microsphere for Increased Drug Retention in Knees after Intra-Articular Injection” (Pharmaceutics, 2019).

Columns and labels:
[1] = 0.25 mg per knee, rats

Compound: CC1(C)O[C@@H]2C[C@H]3[C@@H]4CCC5=CC(=O)C=C[C@]5(C)[C@@]4(F)[C@@H](O)C[C@]3(C)[C@]2(C(=O)CO)O1 [TA, triamcinolone acetonide]
- Solubility in ACN: < 1000 µg/mL
- Tolerability of IA dose [1]: well tolerated
